From ChEMBL document CHEMBL5331076, “Streptogramin A derivatives as mitochondrial translation inhibitors to suppress glioblastoma stem cell growth” (Eur J Med Chem, 2023) come the findings set out here.

Structures are written as SMILES. Activity calls are given as the source filed them. The rule behind the calls is not given here.

Assay [1] relates to COMI. Description: Growth inhibition of human COMI cells incubated for 48 hrs by Hoechst 33342/PI staining based analysis. The class given is functional.
The test system of assay [2] is COMI. Description: Growth inhibition of human COMI cells incubated for 48 hrs in the presence of quinupristin by Hoechst 33342/PI staining based analysis. The class given is functional.
Assay [3] concerns COMI. Put plainly: Inhibition of mitochondrial translation in human COMI cells assessed as decrease in ND3 expression level at 0.5 to 5 uM incubated for 48 hrs by immunoblotting analysis. Format: functional, cell-based. Conditions: dose 0.5-5 µM.
Assay [4] concerns COMI. Put plainly: Inhibition of mitochondrial translation in human COMI cells assessed as decrease in COX1 expression level at 0.5 to 5 uM incubated for 48 hrs by immunoblotting analysis. Format: functional, cell-based. Conditions: dose 0.5-5 µM.
The subject of assay [5] is COMI. Description: Inhibition of mitochondrial translation in human COMI cells assessed as decrease in COX2 expression level at 0.5 to 5 uM incubated for 48 hrs by immunoblotting analysis. Format: functional, cell-based. The note with it: dose 0.5-5 µM.
Assay [6] deals with COMI. Put plainly: Inhibition of mitochondrial translation in human COMI cells assessed as increase in COX4 expression level at 0.5 to 5 uM incubated for 48 hrs by immunoblotting analysis. The class given is functional, cell-based. Conditions: dose 0.5-5 µM.
Assay [7] relates to COMI. Put plainly: Inhibition of mitochondrial translation in human COMI cells assessed as decrease in ND3 expression level incubated for 48 hrs by immunoblotting analysis. The class given is functional, cell-based.
Assay [8] concerns COMI. Put plainly: Inhibition of mitochondrial translation in human COMI cells assessed as decrease in COX1 expression level incubated for 48 hrs by immunoblotting analysis. The class given is functional, cell-based.
For assay [9], the system named is COMI. Description: Inhibition of mitochondrial translation in human COMI cells assessed as decrease in COX2 expression level incubated for 48 hrs by immunoblotting analysis. The class given is functional, cell-based.
Assay [10] deals with COMI. Put plainly: Inhibition of mitochondrial translation in human COMI cells assessed as increase in COX4 expression level incubated for 48 hrs by immunoblotting analysis. Format: functional, cell-based.

Consider `CN[C@H]1Cc2nc(co2)C(=O)N2CCC=C2C(=O)O[C@H](C(C)C)[C@H](C)/C=C/C(=O)NC/C=C/C(C)=C/[C@@H](O)C1`, for which the GI50 with COMI [1] was determined as 19.4 µM; with COMI [2], 6.57 µM. The inhibition result in the assay on COMI [3], with COMI [4], in the assay on COMI [5] and with COMI [6] was “inactive” each time.

As for `CC1=CC2CNC(=O)/C=C/[C@@H](C)[C@@H](C(C)C)OC(=O)C3=CCCN3C(=O)c3coc(n3)CC(=O)C[C@H](O)C1C1C(=O)OC(=O)C21` (stereo partly drawn), the GI50 was more than 100 µM in the assay on COMI [1] and 19.6 µM in the assay on COMI [2]. Besides, the inhibition result in the assay on COMI [7], with COMI [8], in the assay with COMI [9] and in the assay on COMI [10] was “inactive” each time.

`CC1=C\[C@@H](O)C[C@H](F)Cc2nc(co2)C(=O)N2CCC=C2C(=O)O[C@H](C(C)C)[C@H](C)/C=C/C(=O)NC\C=C\1`: the figures for the GI50 in the assay with COMI [1] and in the assay on COMI [2] were 36.1 µM and 12.3 µM, respectively. Moreover, the inhibition entry with COMI [7], with COMI [8], in the assay with COMI [9] and with COMI [10] was “Active” throughout.

On to `CCN(CC)CCS(=O)(=O)[C@@H]1CCN2C(=O)c3coc(n3)C[C@H](F)C[C@H](O)/C=C(C)/C=C/CNC(=O)/C=C/[C@@H](C)[C@@H](C(C)C)OC(=O)[C@@H]12`, for which the GI50 was 6.73 µM in the assay on COMI [1] and 5.71 µM in the assay with COMI [2]. The inhibition entry with COMI [3], in the assay with COMI [4], in the assay on COMI [5] and in the assay with COMI [6] was “Active” throughout.

As for `CCN(CC)CCS(=O)(=O)[C@@H]1CCN2C(=O)c3coc(n3)C[C@H](O)C[C@H](O)/C=C(C)/C=C/CNC(=O)/C=C/[C@@H](C)[C@@H](C(C)C)OC(=O)[C@@H]12`, the values for the GI50 in the assay with COMI [1] and in the assay with COMI [2] were 37.5 µM and 7.05 µM, respectively. Moreover, the inhibition entry in the assay on COMI [7], in the assay on COMI [8], in the assay on COMI [9] and in the assay on COMI [10] was “Active” in each case.

Regarding `CC1=C\[C@@H](O)C[C@H](O)Cc2nc(co2)C(=O)N2CCC=C2C(=O)O[C@H](C(C)C)[C@H](C)/C=C/C(=O)NC\C=C\1`, the results for the 50% growth inhibitory concentration (GI50) in the assay with COMI [1] and in the assay with COMI [2] were 52.5 µM and 8.74 µM, respectively. The inhibition entry with COMI [7], in the assay on COMI [8], in the assay on COMI [9] and with COMI [10] was “Active” each time.

With `CCN(CC)CCS(=O)(=O)[C@@H]1CCN2C(=O)c3coc(n3)C[C@H](NC)C[C@H](O)/C=C(C)/C=C/CNC(=O)/C=C/[C@@H](C)[C@@H](C(C)C)OC(=O)[C@@H]12`, the concentration for 50% growth inhibition (GI50) in the assay on COMI [1] came out at 14.2 µM; with COMI [2], 4.85 µM. Besides, the inhibition result with COMI [3], in the assay with COMI [4], in the assay with COMI [5] and in the assay on COMI [6] was “inactive” throughout.

For `CC1=C\[C@@H](O)C[C@@H](O)Cc2nc(co2)C(=O)N2CCC=C2C(=O)O[C@H](C(C)C)[C@H](C)/C=C/C(=O)NC\C=C\1`, the GI50 in the assay on COMI [1] is 21.7 µM; in the assay with COMI [2] it was 5.28 µM. The inhibition entry with COMI [7], in the assay with COMI [8], with COMI [9] and with COMI [10] was “Active” throughout.

As for `CC1=C\[C@@H](O)CC(=O)Cc2nc(co2)C(=O)N2CCC=C2C(=O)O[C@H](C(C)C)[C@H](C)/C=C/C(=O)NC\C=C\1` [VIRGINIAMYCIN FACTOR M1], the GI50 turned out to be 17.1 µM in the assay with COMI [1] and 7.25 µM with COMI [2].

Regarding `CC1=C\[C@@H](O)C[C@@H](F)Cc2nc(co2)C(=O)N2CCC=C2C(=O)O[C@H](C(C)C)[C@H](C)/C=C/C(=O)NC\C=C\1`, the GI50 in the assay on COMI [1] worked out at 4.82 µM; in the assay on COMI [2] it was 5.42 µM. Also, the inhibition entry in the assay with COMI [3], in the assay on COMI [4], in the assay with COMI [5] and in the assay with COMI [6] was “Active” throughout.

Consider `CC1=CC2CNC(=O)/C=C/[C@@H](C)[C@@H](C(C)C)OC(=O)C3=CCCN3C(=O)c3coc(n3)CC(=O)C[C@H](O)C1C1C(=O)NC(=O)C21` (stereo partly drawn), for which the GI50 is more than 100 µM in the assay with COMI [1] and 16.4 µM in the assay with COMI [2]. Also, the inhibition entry in the assay on COMI [7], with COMI [8], in the assay with COMI [9] and in the assay with COMI [10] was “inactive” each time.

As for `CCN(CC)CCS(=O)(=O)[C@@H]1CCN2C(=O)c3coc(n3)CC(=O)C[C@H](O)C3C(C)=CC(CNC(=O)/C=C/[C@@H](C)[C@@H](C(C)C)OC(=O)[C@@H]12)C1C(=O)NC(=O)C13` (stereo partly drawn), the GI50 in the assay with COMI [1] was more than 100 µM; in the assay on COMI [2], 14.5 µM. For the same compound, the inhibition entry with COMI [7], in the assay on COMI [8], in the assay with COMI [9] and with COMI [10] was “inactive” each time.

As for `CN[C@@H]1Cc2nc(co2)C(=O)N2CCC=C2C(=O)O[C@H](C(C)C)[C@H](C)/C=C/C(=O)NC/C=C/C(C)=C/[C@@H](O)C1`, the GI50 in the assay with COMI [1] was determined as 1.16 µM; in the assay with COMI [2], 1.5 µM. Besides, the inhibition entry in the assay on COMI [3], with COMI [4], in the assay on COMI [5] and with COMI [6] was “inactive” each time.

Turning to `CCN(CC)CCS(=O)(=O)[C@@H]1CCN2C(=O)c3coc(n3)CC(=O)/C=C/C=C(C)/C=C/CNC(=O)/C=C/[C@@H](C)[C@@H](C(C)C)OC(=O)[C@@H]12`, the GI50 in the assay on COMI [1] is 10.9 µM; in the assay on COMI [2], 9.9 µM.

Regarding `CCN(CC)CCS(=O)(=O)[C@@H]1CCN2C(=O)c3coc(n3)C[C@@H](O)C[C@H](O)/C=C(C)/C=C/CNC(=O)/C=C/[C@@H](C)[C@@H](C(C)C)OC(=O)[C@@H]12`, the GI50 stood at 18.8 µM in the assay with COMI [1] and 5.17 µM in the assay with COMI [2]. Also, the inhibition entry with COMI [7], in the assay with COMI [8], with COMI [9] and with COMI [10] was “Active” each time.

For the compound `CC1=C\C=C\C(=O)Cc2nc(co2)C(=O)N2CCC=C2C(=O)O[C@H](C(C)C)[C@H](C)/C=C/C(=O)NC\C=C\1`, the GI50 with COMI [1] was determined as 20.5 µM; with COMI [2], 15.6 µM.

As for `CCN(CC)CCS(=O)(=O)[C@@H]1CCN2C(=O)c3coc(n3)C[C@@H](F)C[C@H](O)/C=C(C)/C=C/CNC(=O)/C=C/[C@@H](C)[C@@H](C(C)C)OC(=O)[C@@H]12`, the GI50 was 20.5 µM in the assay with COMI [1] and 8.37 µM in the assay on COMI [2]. The inhibition entry in the assay with COMI [7], with COMI [8], in the assay with COMI [9] and in the assay on COMI [10] was “Active” in each case.

`CCN(CC)CCS[C@@H]1CCN2C(=O)c3coc(n3)CC(=O)C[C@H](O)/C=C(C)/C=C/CNC(=O)/C=C/[C@@H](C)[C@@H](C(C)C)OC(=O)[C@@H]12`: the GI50 in the assay with COMI [1] amounted to 7.02 µM; in the assay with COMI [2], 8 µM.

In the case of `CCN(CC)CCS(=O)(=O)[C@@H]1CCN2C(=O)c3coc(n3)CC(=O)C[C@H](O)C3C(C)=CC(CNC(=O)/C=C/[C@@H](C)[C@@H](C(C)C)OC(=O)[C@@H]12)C1C(=O)OC(=O)C13` (stereo partly drawn), the GI50 in the assay with COMI [1] was more than 100 µM; with COMI [2], 14.8 µM. Moreover, the inhibition entry with COMI [7], in the assay on COMI [8], in the assay on COMI [9] and in the assay with COMI [10] was “inactive” each time.
